How the values were obtained:
ducksalad = test: Test B flooded paddy test; assay type: in vivo, Heteranthera limosa; settings: 500 g ai/ha, Flood; scale of 0 to 100 where 0 is no effect and 100 is complete control
Method in brief: (§1)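 Visual ratings from 0, meaning no effect, up to 100, meaning complete control, were made by comparison with untreated controls 13 to 15 days after treatment. Test compounds went straight into floodwater standing 3 cm over the soil of pots holding 2-leaf seedlings.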

barnyardgrass [1] = test: Test A pre-/postemergence herbicide test; assay type: in vivo, Echinochloa crus-galli
Method in brief: (§2)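 Planted in loam–sand blend; treated the same day preemergence by directed soil spray, while separately grown plants at one- to two-leaf stage got postemergence spray. Compared visually with untreated controls after approximately 10 days; 100 means complete control.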

soybean = test: Test C pre-/postemergence herbicide test; assay type: in vivo, Glycine max
Method in brief: (§3)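 Test compounds, formulated in a surfactant-containing non-phytotoxic solvent blend, are applied to seeded loam/sand soil (preemergence) and to young plants at the 1- to 4-leaf stage in peat-based medium (postemergence). Plants stay 13 to 15 days under greenhouse conditions, then are scored visually relative to controls, 0 = no effect, 100 = complete control.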

blackgrass = test: Test C pre-/postemergence herbicide test; assay type: in vivo, Alopecurus myosuroides
Method in brief: as §3

barnyardgrass [2] = test: Test C pre-/postemergence herbicide test; assay type: in vivo, Echinochloa crus-galli
Method in brief: as §3

barnyardgrass [3] = test: Test B flooded paddy test; assay type: in vivo, Echinochloa crus-galli; settings: 500 g ai/ha, Flood; scale of 0 to 100 where 0 is no effect and 100 is complete control
Method in brief: as §1

corn = test: Test A pre-/postemergence herbicide test; assay type: in vivo, Zea mays; settings: Postemergence
Method in brief: as §2

crabgrass, large = test: Test C pre-/postemergence herbicide test; assay type: in vivo, Digitaria sanguinalis
Method in brief: as §3

morningglory = test: Test C pre-/postemergence herbicide test; assay type: in vivo, Ipomoea coccinea
Method in brief: as §3

rice = test: Test B flooded paddy test; assay type: in vivo, Oryza sativa; settings: 500 g ai/ha, Flood; scale of 0 to 100 where 0 is no effect and 100 is complete control
Method in brief: as §1

ragweed = test: Test C pre-/postemergence herbicide test; assay type: in vivo, Ambrosia elatior
Method in brief: as §3

sedge, umbrella = test: Test B flooded paddy test; assay type: in vivo, Cyperus difformis; settings: 500 g ai/ha, Flood; scale of 0 to 100 where 0 is no effect and 100 is complete control
Method in brief: as §1

giant foxtail = test: Test A pre-/postemergence herbicide test; assay type: in vivo, Setaria faberii
Method in brief: as §2

[4] = Postemergence, 125 g ai/ha, visual rating on 0 to 100 scale (0 no effect, 100 complete control), approx. 10 days
[5] = Postemergence, 500 g ai/ha, 0 to 100 scale (0 no effect, 100 complete control)
[6] = Preemergence, 125 g ai/ha, 0 to 100 scale where 0 is no effect and 100 is complete control
[7] = Preemergence, 500 g ai/ha, visual rating on 0 to 100 scale (0 no effect, 100 complete control)
[8] = Postemergence, 31 g ai/ha, scale 0 to 100 (0 no effect, 100 complete control)
[9] = Postemergence, 62 g ai/ha, scale 0 (no effect) to 100 (complete control)
[10] = Postemergence, 125 g ai/ha, scale 0 to 100 (0 no effect, 100 complete control)
[11] = Postemergence, 250 g ai/ha, scale 0 to 100 (0 no effect, 100 complete control)
[12] = Preemergence, 62 g ai/ha, scale 0 to 100 (0 no effect, 100 complete control)
[13] = Preemergence, 125 g ai/ha, scale 0 to 100
[14] = Preemergence, 31 g ai/ha, scale 0 to 100, 0 is no effect and 100 is complete control

O=C1NCC(c2cccc(OC(F)F)c2)C1C(=O)Nc1ccc(F)c(F)c1F (stereo not shown) [Compound 325]
Plant response rating, Ducksalad (ducksalad): 100
Plant response rating, Barnyardgrass (barnyardgrass [1]; [4]): 90
Plant response rating, Barnyardgrass (barnyardgrass [1]; [5]): 90
Plant response rating, Barnyardgrass (barnyardgrass [1]; [6]): 90
Barnyardgrass plant response rating (barnyardgrass [1]; [7]): 90
Plant response rating, Soybean (soybean; [8]): 0
Plant response rating, Soybean (soybean; [9]): 0
Plant response rating, Soybean (soybean; [10]): 0
Plant response rating, Soybean (soybean; [11]): 0
Soybean plant response rating (soybean; [12]): 0
Plant response rating, Soybean (soybean; [13]): 0
Plant response rating, Blackgrass (blackgrass; [8]): 0
Plant response rating, Blackgrass (blackgrass; [9]): 0
Plant response rating, Blackgrass (blackgrass; [10]): 0
Plant response rating, Blackgrass (blackgrass; [11]): 35
Blackgrass plant response rating (blackgrass; [14]): 5
Blackgrass plant response rating (blackgrass; [12]): 50
Plant response rating, Blackgrass (blackgrass; [13]): 70
Plant response rating (scale of 0 to 100), Blackgrass (blackgrass; Preemergence, 250 g ai/ha): 85
Plant response rating, Barnyardgrass (barnyardgrass [2]; [8]): 10
Plant response rating, Barnyardgrass (barnyardgrass [2]; [9]): 25
Plant response rating, Barnyardgrass (barnyardgrass [2]; [10]): 70
Plant response rating, Barnyardgrass (barnyardgrass [2]; [11]): 80
Barnyardgrass plant response rating (barnyardgrass [2]; [14]): 85
Barnyardgrass plant response rating (barnyardgrass [2]; [12]): 90
Plant response rating, Barnyardgrass (barnyardgrass [2]; Preemergence, 125 g ai/ha, scale 0 to 100 (0 no effect, 100 complete control)): 95
Plant response rating (scale of 0 to 100; 0 is no effect, 100 is complete control), Barnyardgrass (barnyardgrass [2]; Preemergence, 250 g ai/ha): 95
Plant response rating, Barnyardgrass (barnyardgrass [3]): 70
Plant response rating, Corn (corn; 125 g ai/ha, visual rating on 0 to 100 scale (0 no effect, 100 complete control), approx. 10 days): 80
Plant response rating, Corn (corn; 500 g ai/ha, 0 to 100 scale (0 no effect, 100 complete control)): 80
Plant response rating, Crabgrass, Large (crabgrass, large; [8]): 55
Plant response rating, Crabgrass, Large (crabgrass, large; [9]): 65
Plant response rating, Crabgrass, Large (crabgrass, large; [10]): 65
Plant response rating, Crabgrass, Large (crabgrass, large; [11]): 85
Crabgrass, Large plant response rating (crabgrass, large; [14]): 95
Crabgrass, Large plant response rating (crabgrass, large; [12]): 95
Plant response rating, Crabgrass, Large (crabgrass, large; [13]): 95
Plant response rating (scale of 0 to 100), Crabgrass, Large (crabgrass, large; Preemergence, 250 g ai/ha): 100
Plant response rating, Morningglory (morningglory; [8]): 5
Plant response rating, Morningglory (morningglory; [9]): 5
Plant response rating, Morningglory (morningglory; [10]): 35
Plant response rating, Morningglory (morningglory; [11]): 50
Morningglory plant response rating (morningglory; [14]): 0
Morningglory plant response rating (morningglory; [12]): 30
Plant response rating, Morningglory (morningglory; [13]): 30
Plant response rating (scale of 0 to 100), Morningglory (morningglory; Preemergence, 250 g ai/ha): 40
Plant response rating, Rice (rice): 20
Plant response rating, Ragweed (ragweed; [8]): 10
Plant response rating, Ragweed (ragweed; [9]): 10
Plant response rating, Ragweed (ragweed; [10]): 25
Plant response rating, Ragweed (ragweed; [11]): 35
Ragweed plant response rating (ragweed; [12]): 60
Plant response rating, Ragweed (ragweed; [13]): 80
Plant response rating, Sedge, Umbrella (sedge, umbrella): 40
Plant response rating, Foxtail, Giant (giant foxtail; [4]): 90
Plant response rating, Foxtail, Giant (giant foxtail; [5]): 90
Plant response rating, Foxtail, Giant (giant foxtail; [6]): 90
Foxtail, Giant plant response rating (giant foxtail; [7]): 90

Reference: patent US10294202B2, “Pyrrolidinones as herbicides” (FMC Corporation, priority 2013, dated 2019)
